# In PMC8406298, “Discovery of Fungus-Specific Targets and Inhibitors Using Chemical Phenotyping of Pathogenic Spore Germination” (mBio, 2021):
# Assays:
# [1] = tested on: Cryptococcus yeast (CHY3833 and CHY3836); experiment: Yeast replication secondary screen (OD600); format: cell-based, Cryptococcus neoformans serotype D (deneoformans); conditions: 10 μM, 12 h at 30°C
# Method: (ii) Yeast replication. CHY3833 and CHY3836 were each grown in YPD liquid overnight at 30°C to saturation and then resuspended in 0.5× YPD at an OD600 of 0.005. Strains were aliquoted into 384-well plates with inhibitors and grown for 12 h at 30°C at […] before OD600 readings were taken. Compounds that caused a >10% decrease in growth were considered yeast growth inhibitors.
# [2] = tested on: normal human dermal fibroblasts (NHDF) cells; experiment: Fibroblast cytotoxicity (CellTiter-Glo); format: cell-based; conditions: 10 µM
# Procedure, shortened: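 Normal human dermal fibroblasts, 1 × 10^3 per well, exposed to compounds at 10 μM for 72 h at 37°C. Viability read as ATP-dependent CellTiter-Glo luminescence. Dose-response runs titrated compounds from 80 μM to 0.5 μM in duplicate.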
Compound,Yeast Inhibition: % Inhibition [1] [%],Cytotoxicity: Relative Cell Viability (% of Negative Control) [2]
Cc1cc(C(=O)NCCn2nc(C(F)(F)F)c3c2CCCC3)c(C)o1 [compound 72718563],79.7,92.0 % of Negative Control
CCn1c(CSc2ccccc2)nc2ccccc21 [compound 2992099],59.0,99.2 % of Negative Control
Cc1oc2cc(OCCN3CCN(c4ccccc4F)CC3)ccc2c(=O)c1-c1ccccc1 [compound 24280258],7.5,103.4 % of Negative Control
O=C(c1ccc(OC(F)(F)F)cc1)N(Cc1ccoc1)Cc1cccs1 [compound 71804107],7.9,94.0 % of Negative Control
C=CCN(CC=C)CC(O)CN1c2ccccc2Sc2ccccc21 (centres unmarked) [compound 2896856],43.9,5.4 % of Negative Control
Cc1cc(C(=O)NCCc2nc(C3CC3)cc(C(F)(F)F)n2)c(C)o1 [compound 71797038],47.0,94.6 % of Negative Control
CC(C)(C)c1ccc(-c2csc(N)n2)cc1 [compound 673711],94.3,86.3 % of Negative Control
O=C(NCCc1ccccc1)c1n[nH]c2ccccc12 [compound 1505880],77.5,87.7 % of Negative Control
O=C1CC(c2ccccc2)[Se]C(c2ccccc2)C1 (centres unmarked) [compound 3287596],100.2,45.9 % of Negative Control
Cc1ccccc1OCCSCc1nc2ccccc2[nH]1 [compound 1589778],72.5,86.0 % of Negative Control
O=C1/C(=C/c2ccncc2)SC(=S)N1Nc1ccccc1 [compound 1636480],67.7,86.8 % of Negative Control
Cc1cccc(NC(=O)CC2SC(=O)N(c3ccc(F)cc3)C2=O)c1 (centres unmarked) [compound 16876071],58.1,86.9 % of Negative Control
O=C(NCc1ccnc(-c2cccs2)c1)c1nc2ccccc2s1 [compound 91630328],3.0,93.3 % of Negative Control
CCCC(=O)N1CCN(c2nc3c(C)c(Cl)ccc3s2)CC1 [compound 7294823],31.5,104.9 % of Negative Control
O=C(Nc1nc2c(s1)CN(C(=O)C1(c3cccs3)CCCC1)CC2)c1ccoc1 [compound 71788301],8.3,91.4 % of Negative Control
O=C(NCCc1nc2c(c(C(F)(F)F)n1)CCCC2)c1ccc(F)cc1Cl [compound 71797126],20.3,106.4 % of Negative Control
Cc1ccc(OCCn2c(C)nc3ccccc32)cc1 [compound 790960],81.4,90.6 % of Negative Control
COc1ccc(SCCCC(=O)Nc2ncnc3sccc23)cc1 [compound 18585630],15.2,104.7 % of Negative Control
Cc1ccc(Nc2ccc(N3CCN(C(=O)Cc4ccc(F)cc4)CC3)nn2)cc1 [compound 49671361],-10.5,102.4 % of Negative Control
O=C(COc1ccc2ccccc2c1)NCC1COC2(CCCC2)O1 (centres unmarked) [compound 16823609],2.4,99.9 % of Negative Control
O=C(/C=C/c1cccc(F)c1)c1cccs1 [compound 7185494],101.7,45.7 % of Negative Control
O=C(NC1CCCC1)c1csc(Nc2ccccc2)n1 [compound 30860168],82.0,93.7 % of Negative Control
ClC1(Cl)CC1Cn1cnc2ccccc21 (centres unmarked) [compound 2936975],49.3,93.7 % of Negative Control

Compound,Yeast Inhibition: % Inhibition [1] [%],Cytotoxicity: Relative Cell Viability (% of Negative Control) [2]
CCCCSc1nc2ccc(C)cc2[nH]1 [compound 2129690],80.1,104.3 % of Negative Control
CC1CNc2ccccc2N(Cc2ccc(Br)cc2)C1=O (centres unmarked) [compound 20896311],5.6,94.5 % of Negative Control
CC(C)(C)c1c[se]c(=S)s1 [compound 3797566],91.9,98.5 % of Negative Control
O=C1C(NS(=O)(=O)c2ccccc2)=C/C(=N\S(=O)(=O)c2ccc(F)cc2)c2ccccc21 [compound 16805904],-24.2,89.3 % of Negative Control
CSC1=Nc2cccnc2Nc2ccccc21 [compound 16824016],20.9,94.9 % of Negative Control
CCCCc1nnc(NC(=O)c2cc(OC)ncn2)s1 [compound 91628556],83.1,88.7 % of Negative Control
NC(=O)/C=C/C(=O)Nc1cccc(C(F)(F)F)c1 [compound 707936],101.2,3.5 % of Negative Control
O=C(Cn1c(=O)n(Cc2cccnc2)c(=O)c2ncccc21)Nc1ccc2c(c1)OCO2 [compound 16951905],-5.5,101.3 % of Negative Control
S=C1SCN(Cc2ccccn2)CN1Cc1ccco1 [compound 3242906],100.6,103.5 % of Negative Control
Cc1ccc(C)c(N2C(=O)C=CC2=O)c1 [compound 709153],101.9,3.3 % of Negative Control
Cc1cccc2nc(CSC(=S)NCc3cccnc3)cn12 [compound 957599],59.9,10.0 % of Negative Control
Cc1cc(C)n(-c2nc(CCNC(=O)c3cc(C)oc3C)cs2)n1 [compound 71802096],42.7,103.6 % of Negative Control
O=C(NCc1ccco1)c1sc2ccccc2c1Cl [compound 2049334],53.3,88.3 % of Negative Control
Cc1ccccc1CSc1n[nH]c(=O)c2cc(-c3ccco3)nn12 [compound 27373907],49.7,97.6 % of Negative Control
C(=C\c1cccs1)/c1nnc(-c2cccs2)o1 [compound 6263817],49.0,84.3 % of Negative Control
O=C(COC(=O)c1ccc(C2Nc3ccccc3S(=O)(=O)N2)cc1)Nc1cc(F)ccc1F (centres unmarked) [compound 44117394],9.7,105.4 % of Negative Control
COc1ccc(CCNc2ncnc3scc(-c4cccs4)c23)cc1OC [compound 2008712],68.9,97.9 % of Negative Control
Cc1ccccc1OCCn1cnc2ccccc21 [compound 749608],75.5,96.0 % of Negative Control
O=C(Nc1nc2c(s1)CCc1ccccc1-2)c1ccco1 [compound 701070],1.7,92.9 % of Negative Control
O=S(=O)(Nc1nc2c(F)cccc2s1)c1ccc(Cl)s1 [compound 16934170],-6.6,77.5 % of Negative Control
c1ccc(Cn2nnc3c(Sc4ncco4)ncnc32)cc1 [compound 7471335],101.6,4.1 % of Negative Control
O=C(CCSc1ccc(Cl)cc1)Nc1ccc2scnc2c1 [compound 18585549],29.1,96.1 % of Negative Control
Cc1ccc(N2C(=O)CC(Sc3ccccc3C(=O)O)C2=O)c(Br)c1 (centres unmarked) [compound 2919713],67.2,94.3 % of Negative Control
